Reference: DBAASP
In brackets after ≈: the same amount, converted by molar mass.

Legend:
Assay in all cases: ≥ marks a high value that may be exact or a test limit, other limits are often not marked, values filed in µg/mL are converted to µM
[1] = test system: Pseudomonas aeruginosa ATCC 10662
[2] = test system: Staphylococcus aureus ATCC 25923
Candida albicans = test system: Candida albicans
[3] = test system: Staphylococcus epidermidis ATCC 1435
Staphylococcus aureus = test system: Staphylococcus aureus
Acinetobacter baumannii = test system: Acinetobacter baumannii
Candida glabrata = test system: Candida glabrata
Candida tropicalis = test system: Candida tropicalis
[4] = test system: Staphylococcus aureus NCTC 10788
[5] = test system: Staphylococcus aureus ATCC 12493
[6] = test system: Escherichia coli NCTC 10418
[7] = test system: Candida albicans NCPF 1467
[8] = test system: Streptococcus pyogenes GAS M1T1
Escherichia coli BL21 = test system: Escherichia coli BL21
[9] = test system: Xanthomonas axonopodis pv. phaseoli ATCC 9563
Pseudomonas syringae = test system: Pseudomonas syringae
[10] = test system: Bacillus subtilis ATCC 6633
[11] = test system: Klebsiella pneumoniae ATCC 27736
[12] = test system: Pseudomonas aeruginosa ATCC BAA-427
[13] = test system: Pseudomonas aeruginosa ATCC 27853
[14] = test system: Acinetobacter baumannii KCTC 2508
[15] = test system: Klebsiella pneumoniae KCTC 2208
[16] = test system: Streptococcus mutans UA159
[17] = test system: Streptococcus sanguinis ATCC 10556
[18] = test system: Streptococcus sobrinus ATCC 6715
[19] = test system: Pseudomonas aeruginosa PAO1
[20] = test system: Staphylococcus aureus NCTC 8325-4
Escherichia coli K-12 = test system: Escherichia coli K-12
Klebsiella pneumoniae = test system: Klebsiella pneumoniae

## CC(C)C[C@H](NC(=O)[C@H](CC(N)=O)NC(=O)[C@H](CCCN=C(N)N)NC(=O)[C@H](Cc1ccccc1)NC(=O)[C@@H](N)Cc1ccccc1)C(=O)N[C@@H](Cc1c[nH]c2ccccc12)C(=O)N[C@@H](CCCCN)C(=O)NCC(=O)N[C@@H](C)C(=O)N[C@@H](CCCCN)C(=O)N[C@@H](C)C(=O)N[C@@H](C)C(=O)N[C@@H](Cc1ccccc1)C(=O)N[C@@H](CCCN=C(N)N)C(=O)N[C@@H](C)C(=O)NCC(=O)N[C@@H](Cc1cnc[nH]1)C(=O)N[C@@H](C)C(=O)N[C@@H](C)C(=O)N[C@@H](Cc1c[nH]c2ccccc12)C(=O)N[C@@H](CCCN=C(N)N)C(=O)N[C@@H](C)C(=O)O [FFRNLWKGAKAAFRAGHAAWRA]
[1]
  MIC: 19.7 µM (≈ 50 µg/mL)
[2]
  MIC: 1.23 µM (≈ 3.12 µg/mL)
Candida albicans
  MIC: 2.47 µM (≈ 6.25 µg/mL)
[3]
  MIC: 0.616 µM (≈ 1.56 µg/mL)
Staphylococcus aureus
  MIC: 1.23 µM (≈ 3.12 µg/mL)
Acinetobacter baumannii
  MIC: 2.47 µM (≈ 6.25 µg/mL)
Candida glabrata
  MIC: ≥ 39.5 µM
Candida tropicalis
  MIC: 2.47 µM (≈ 6.25 µg/mL)

## CC(C)C[C@H](NC(=O)[C@H](CC(C)C)NC(=O)[C@H](CCCCN)NC(=O)[C@@H]1CCCN1C(=O)[C@H](CC(C)C)NC(=O)[C@@H](N)Cc1ccccc1)C(=O)N[C@@H](C)C(=O)NCC(=O)N[C@@H](CC(C)C)C(=O)N1CCC[C@H]1C(=O)N[C@@H](CO)C(=O)N[C@@H](Cc1ccccc1)C(=O)N[C@@H](CC(C)C)C(=O)N[C@H]1CSSC[C@@H](C(=O)O)NC(=O)[C@H](CCCCN)NC(=O)[C@H](CCCCN)NC(=O)[C@H](Cc2ccccc2)NC(=O)[C@H](C(C)C)NC(=O)[C@H](CC(C)C)NC1=O [FLPKLLAGLPSFLCLVFKKC]
[4]
  MIC: 16 µM (≈ 35.8 µg/mL)
[5]
  MIC: 8 µM (≈ 17.9 µg/mL)
[6]
  MIC: 16 µM (≈ 35.8 µg/mL)
[7]
  MIC: 8 µM (≈ 17.9 µg/mL)

## CC[C@H](C)[C@H](NC(=O)[C@H](CCCCN)NC(=O)[C@H](CC(N)=O)NC(=O)[C@H](CCCCN)NC(=O)[C@H](CC(C)C)NC(=O)[C@H](Cc1ccc(O)cc1)NC(=O)[C@H](CCC(N)=O)NC(=O)[C@H](CCCN=C(N)N)NC(=O)[C@@H](NC(=O)[C@@H](NC(=O)[C@H](CCC(=O)O)NC(=O)[C@H](CCCCN)NC(=O)[C@H](Cc1c[nH]c2ccccc12)NC(=O)[C@H](C)N)[C@@H](C)O)[C@@H](C)CC)C(=O)N[C@@H](CCCCN)C(=O)N[C@@H](CCCCN)C(=O)N[C@@H](CCCCN)C(=O)N[C@@H](Cc1c[nH]c2ccccc12)C(=O)N[C@@H](CCCN=C(N)N)C(=O)N[C@@H](CCCCN)C(=O)N[C@@H](C)C(=O)N[C@H](C(=O)N[C@H](C(=O)N[C@@H](C)C(=O)N[C@@H](Cc1c[nH]c2ccccc12)C(=O)O)[C@@H](C)CC)C(C)C [AWKETIRQYLKNKIKKKWRKAVIAW]
[8]
  MIC: 10 µM (≈ 31.9 µg/mL)
Escherichia coli BL21
  MIC: 2 µM (≈ 6.37 µg/mL)
[9]
  MIC: 1 µM (≈ 3.19 µg/mL)
Pseudomonas syringae
  MIC: 8 µM (≈ 25.5 µg/mL)

## CC[C@H](C)[C@H](NC(=O)[C@H](Cc1cnc[nH]1)NC(=O)[C@H](Cc1cnc[nH]1)NC(=O)[C@H](Cc1ccccc1)NC(=O)[C@@H](N)Cc1ccccc1)C(=O)N[C@@H](Cc1ccccc1)C(=O)N[C@@H](CCCN=C(N)N)C(=O)NCC(=O)N[C@@H](C)C(=O)N[C@H](C(=O)N[C@@H](Cc1cnc[nH]1)C(=O)N[C@H](C(=O)NCC(=O)N[C@@H](CCCCN)C(=O)N[C@H](C(=O)N[C@H](C(=O)N[C@@H](Cc1cnc[nH]1)C(=O)N[C@@H](CCCN=C(N)N)C(=O)N[C@@H](CC(C)C)C(=O)N[C@H](C(=O)N[C@H](C(=O)NCC(N)=O)[C@@H](C)O)C(C)C)[C@@H](C)CC)[C@@H](C)O)C(C)C)C(C)C [FFHHIFRGAVHVGKTIHRLVTG]
[10]
  MIC: 8 µM (≈ 20.2 µg/mL)
[11]
  MIC: 6 µM (≈ 15.2 µg/mL)
[12]
  MIC: 10 µM (≈ 25.3 µg/mL)
[1]
  MIC: 9.88 µM (≈ 25 µg/mL)
[3]
  MIC: 0.593 µM (≈ 1.5 µg/mL)
Staphylococcus aureus
  MIC: 1.23 µM (≈ 3.1 µg/mL)
Acinetobacter baumannii
  MIC: 1.23 µM (≈ 3.1 µg/mL)

## CC[C@H](C)[C@H](N)C(=O)N[C@@H](C)C(=O)N[C@@H](CCCN=C(N)N)C(=O)N[C@@H](CCCN=C(N)N)C(=O)N[C@@H](C)C(=O)N[C@@H](CC(C)C)C(=O)N[C@@H](CCCCN)C(=O)N[C@@H](CCCCN)C(=O)N[C@@H](C)C(=O)N[C@@H](CCCCN)C(=O)N[C@@H](CCCN=C(N)N)C(=O)N[C@@H](C)C(=O)N[C@@H](C)C(=O)N[C@@H](Cc1cnc[nH]1)C(=O)N[C@@H](CCCCN)C(=O)N[C@H](C(=O)N1CCC[C@H]1C(=O)N[C@@H](C)C(=O)N[C@@H](C)C(=O)N[C@@H](CCCCN)C(=O)N[C@@H](CCCCN)C(=O)N[C@@H](Cc1ccccc1)C(=O)NCC(=O)N[C@@H](CCCN=C(N)N)C(=O)N[C@@H](CCCN=C(N)N)C(N)=O)[C@@H](C)CC [IARRALKKAKRAAHKIPAAKKFGRR]
[13]
  MIC: 16 µM (≈ 45.5 µg/mL)
[14]
  MIC: 8 µM (≈ 22.7 µg/mL)
[15]
  MIC: 2 µM (≈ 5.69 µg/mL)

## NCCCC[C@H](NC(=O)CNC(=O)[C@H](Cc1ccccc1)NC(=O)[C@H](CCCCN)NC(=O)[C@H](Cc1ccccc1)NC(=O)[C@H](Cc1ccccc1)NC(=O)[C@H](CCCCN)NC(=O)[C@H](CCCCN)NC(=O)[C@H](Cc1ccccc1)NC(=O)[C@H](Cc1ccccc1)NC(=O)[C@H](CCCCN)NC(=O)CNC(=O)[C@@H](N)Cc1c[nH]c2ccccc12)C(=O)O [WGKFFKKFFKFGK]
[16]
  MIC: 18.9 µM (≈ 32 µg/mL)
[17]
  MIC: 18.9 µM (≈ 32 µg/mL)
[18]
  MIC: 18.9 µM (≈ 32 µg/mL)

## CC(C)[C@H](NC(=O)[C@H](CCCCN)NC(=O)[C@H](C)NC(=O)[C@H](C)NC(=O)[C@H](CCCCN)NC(=O)[C@H](CCCCN)NC(=O)[C@H](Cc1ccccc1)NC(=O)[C@H](Cc1ccccc1)NC(=O)[C@H](CCCCN)NC(=O)[C@H](CCCCN)NC(=O)[C@H](Cc1c[nH]c2ccccc12)NC(=O)CN)C(=O)NCC(=O)N[C@@H](CCCCN)C(=O)O [GWKKFFKKAAKVGK]
[16]
  MIC: ≥ 315 µM
[17]
  MIC: ≥ 315 µM
[18]
  MIC: ≥ 315 µM

## CC[C@H](C)[C@H](NC(=O)[C@H](CCC(=O)O)NC(=O)[C@H](CC(N)=O)NC(=O)[C@H](CCCCN)NC(=O)[C@H](CC(C)C)NC(=O)[C@H](Cc1ccc(O)cc1)NC(=O)[C@H](CCCCN)NC(=O)[C@H](CCCN=C(N)N)NC(=O)[C@@H](NC(=O)[C@@H](NC(=O)[C@H](CCC(=O)O)NC(=O)[C@H](CCCCN)NC(=O)[C@H](Cc1c[nH]c2ccccc12)NC(=O)[C@H](C)N)[C@@H](C)O)[C@@H](C)CC)C(=O)N[C@@H](CCCCN)C(=O)N[C@@H](CCCCN)C(=O)N[C@@H](CCCCN)C(=O)N[C@@H](Cc1c[nH]c2ccccc12)C(=O)N[C@@H](CCCN=C(N)N)C(=O)N[C@@H](CCCCN)C(=O)N[C@@H](C)C(=O)N[C@H](C(=O)N[C@H](C(=O)N[C@@H](C)C(=O)N[C@@H](Cc1c[nH]c2ccccc12)C(=O)O)[C@@H](C)CC)C(C)C [AWKETIRKYLKNEIKKKWRKAVIAW]
[8]
  MIC: 10 µM (≈ 31.9 µg/mL)
Escherichia coli BL21
  MIC: 2 µM (≈ 6.38 µg/mL)
[9]
  MIC: 2 µM (≈ 6.38 µg/mL)
Pseudomonas syringae
  MIC: 8 µM (≈ 25.5 µg/mL)
[19]
  MIC: 8 µM (≈ 25.5 µg/mL)

## NCCCC[C@H](NC(=O)[C@H](CCCCN)NC(=O)[C@H](Cc1c[nH]c2ccccc12)NC(=O)[C@H](Cc1c[nH]c2ccccc12)NC(=O)[C@H](CCCCN)NC(=O)[C@H](CCCCN)NC(=O)[C@@H](N)Cc1c[nH]c2ccccc12)C(=O)N[C@@H](Cc1c[nH]c2ccccc12)C(N)=O [WKKWWKKW]
[20]
  MIC: ≥ 62.5 µM
Escherichia coli K-12
  MIC: 31.3 µM (≈ 39.9 µg/mL)
[19]
  MIC: > 250 µM
Klebsiella pneumoniae
  MIC: 250 µM (≈ 319 µg/mL)
